Holding throughout (experiment): growth of human tumour cells (NCI), 48 h
The test system of assay [1] is A498.
Assay [2] relates to CAKI-1.
The subject of assay [3] is HCT-15.
For assay [4], the system named is HL-60.
The subject of assay [5] is HOP-92.
Assay [6] has as its system Hs-578T.
Assay [7] concerns K562.
For assay [8], the system named is LOX IMVI.
The subject of assay [9] is MCF7.
Assay [10] has as its system MDA-MB-231.
In assay [11] the test system is MOLT-4.
The subject of assay [12] is OVCAR-8.
For assay [13], the system named is PC-3.
Assay [14] has as its system RPMI-8226.
In assay [15] the test system is SK-MEL-5.
Assay [16] relates to TK-10.
Assay [17] has as its system UACC-257.
In assay [18] the test system is COLO 205.
Assay [19] deals with SNB-75.
Assay [20] has as its system SK-OV-3.

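Briefly, cells in 96-well plates were exposed to five compound concentrations for 48 h, and endpoints were estimated by linear interpolation. The concentration for 50% growth inhibition is given as GI50.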 Activity calls are given as the source filed them. No stated cut-off is given here; in the data, active = GI50 up to about 1.1 µM and inactive = higher. Bounds are passed on as bounds.

As to `Cc1cn2c(/C=N/NC(=N)N)c(-c3cccc([N+](=O)[O-])c3)nc2s1`, the GI50 in [1] is 1.48 µM (inactive); in assay [2], 2.42 µM (inactive); in [3], 4.41 µM; in assay [4], 1.92 µM (inactive); in [5], 1.64 µM (inactive); in [6] it was 2.38 µM (inactive). The GI50 in assay [7] was 0.215 µM (active); in assay [8], 0.849 µM (active); in [9] it was 0.625 µM (active); in assay [10], 1.41 µM (inactive); in assay [11] it was 1.77 µM (inactive); in assay [12], 1.78 µM (inactive). Moreover, the GI50 in assay [13] was 1.74 µM (inactive); in assay [14], 3.2 µM (inactive); in [15], 1.63 µM (inactive); in [16], 2.21 µM (inactive); in assay [17], 2.11 µM (inactive).

Take `Cc1ccc(-c2n[nH]c(=O)[nH]2)cc1`: the GI50 is > 100 µM (inactive) in assay [1]; > 100 µM (inactive) in assay [2]; > 100 µM (inactive) in assay [18]; greater than 100 µM in assay [3]; > 100 µM (inactive) in [4]; 44.9 µM (inactive) in assay [5]. For the same compound, the GI50 in assay [6], in assay [7], in assay [8], in assay [9], in assay [10] and in assay [11] was > 100 µM (inactive) in each case. Also, the GI50 in assay [12], in assay [13], in assay [14], in assay [15], in assay [19] and in [16] was > 100 µM (inactive) throughout. Also, the GI50 in [17] was > 66.1 µM (inactive).

In the case of `Clc1ccc(/C=c2\nc(-c3ccccc3)n3c2nc2ccccc23)cc1`, the GI50 in [1] was > 100 µM (inactive); in [2], 51.4 µM (inactive); in assay [18], > 100 µM (inactive); in assay [3] it was greater than 100 µM; in assay [4] it was > 100 µM (inactive); in [5], > 100 µM (inactive). For the same compound, the GI50 in assay [6] was 49.3 µM (inactive); in assay [7] it was > 100 µM (inactive); in assay [8], > 100 µM (inactive); in assay [9] it was > 100 µM (inactive); in assay [10], 61.5 µM (inactive); in assay [11] it was > 100 µM (inactive). Also, the GI50 in assay [12] was 32.7 µM (inactive); in assay [13], 19.1 µM (inactive); in assay [14] it was > 100 µM (inactive); in assay [15], > 100 µM (inactive); in assay [20], 43.3 µM (inactive); in [16], > 100 µM (inactive). For the same compound, the GI50 in assay [17] is > 100 µM (inactive).

Consider `Cc1cc2nc3[nH]nc(N)c3nc2cc1C`, for which the GI50 is > 100 µM (inactive) in assay [1]; > 100 µM (inactive) in assay [2]; 44.4 µM (inactive) in assay [18]; greater than 100 µM in [3]; > 100 µM (inactive) in assay [4]; > 100 µM (inactive) in assay [5]. In addition, the GI50 in assay [6] is 52.7 µM (inactive); in assay [7], > 100 µM (inactive); in assay [8] it was > 100 µM (inactive); in assay [9], > 100 µM (inactive); in assay [10] it was > 100 µM (inactive); in [11], > 100 µM (inactive). Further, the GI50 in [12] is 88.7 µM (inactive); in assay [13], > 100 µM (inactive); in [14] it was > 100 µM (inactive); in assay [20], > 100 µM (inactive); in assay [19], 26.2 µM (inactive); in assay [16], > 100 µM (inactive). The GI50 in [17] was > 100 µM (inactive).

On to `CC(=O)NCCCCN(CCCNC(C)=O)C(=O)CNS(=O)(=O)c1cccc2c(N(C)C)cccc12`, for which the GI50 in [1] was > 100 µM (inactive); in [18], > 100 µM (inactive); in assay [3], greater than 100 µM; in assay [4], > 100 µM (inactive); in assay [5] it was > 100 µM (inactive); in [6] it was > 100 µM (inactive). Further, the GI50 in assay [7], in assay [8], in assay [9], in assay [10], in [11] and in assay [13] was > 100 µM (inactive) each time. For the same compound, the GI50 in assay [14], in assay [15], in [20], in assay [16] and in assay [17] was > 100 µM (inactive) in each case.

Take `O=C(NNc1cn[nH]c(=O)n1)c1cccc2nc3ccccc3nc12`: the GI50 in assay [1] was > 100 µM (inactive); in assay [2], 46.6 µM (inactive); in assay [18], > 100 µM (inactive); in assay [3], greater than 100 µM; in assay [4] it was 22.4 µM (inactive); in assay [5] it was 45.2 µM (inactive). In addition, the GI50 in [6] is 63.2 µM (inactive); in assay [7] it was 47.9 µM (inactive); in assay [8], 38.8 µM (inactive); in assay [9], > 100 µM (inactive); in assay [10] it was 26.5 µM (inactive); in [11] it was 11 µM (inactive). Besides, the GI50 in [12] is 39.3 µM (inactive); in [13] it was > 100 µM (inactive); in [14], > 100 µM (inactive); in assay [15], > 100 µM (inactive); in assay [20], 33.4 µM (inactive); in [16] it was 24.3 µM (inactive). The GI50 in [17] is > 100 µM (inactive).

Regarding `CC1S/C(=N\N=C2/C(=O)Nc3ccc(Br)cc32)N(C2CCCCC2)C1=O` (configuration not stated), the GI50 in assay [1] is 3.04 µM (inactive); in assay [2] it was 1.8 µM (inactive); in assay [18] it was 3.85 µM (inactive); in assay [3], 3.87 µM; in [4], 5.85 µM (inactive); in assay [5], 7.46 µM (inactive). The GI50 in [6] was 3.22 µM (inactive); in [7], > 100 µM (inactive); in [8], 3.62 µM (inactive); in assay [9], 12.5 µM (inactive); in assay [10], 2.18 µM (inactive); in assay [11], 5.37 µM (inactive). The GI50 in assay [13] is 5.36 µM (inactive); in assay [14], 16.8 µM (inactive); in assay [15] it was 40.6 µM (inactive); in assay [20], 2.84 µM (inactive); in [16], 1.15 µM (inactive); in assay [17] it was 21 µM (inactive).

Take `Cc1cc2c(cc1Cl)SC(c1ccccc1O)NS2(=O)=O` (configuration not stated): the GI50 in [1] is > 100 µM (inactive); in [2], 50.6 µM (inactive); in assay [18], 20.8 µM (inactive); in [3], 19.4 µM; in [4] it was 59.7 µM (inactive); in assay [5], 54.1 µM (inactive). Also, the GI50 in assay [6] is 38.5 µM (inactive); in assay [7], 27.7 µM (inactive); in [8] it was 43.8 µM (inactive); in assay [9], 36.9 µM (inactive); in assay [10] it was 32.4 µM (inactive); in assay [11], 12.5 µM (inactive). In addition, the GI50 in assay [12] is > 100 µM (inactive); in assay [13], 68.5 µM (inactive); in assay [15], 42.7 µM (inactive); in assay [20], > 100 µM (inactive); in assay [19] it was > 100 µM (inactive); in [16], > 100 µM (inactive). In assay [17], the GI50 is 53 µM (inactive).
